# “And” between values parts separate entries of the source, which are not always exact repeats. Identical values can stand only once. Counter-ions that a name gives are not always drawn.
# Test system: 5-HT release in the rat prefrontal cortex
# Assay: Microdialysis: 5-HT release in prefrontal cortex after I.P. administration
# Type: in vivo
# Conditions: for 5-HT (% of respective basal), individual animal: 0.1 mg/kg I.P., c2-c9 = R#13,14,20,19,25,26,31,32; for 5-HT (% of respective basal), individual animal / 5-HT release, individual animals: hydrochloride; for 5-HT release, MEAN / 5-HT release, individual animals: 0.3 mg/kg I.P.; for 5-HT release, MEAN: n = 8; for 5-HT release, individual animals: one column per animal R#11,12,18,23,29,30,17,24
# Description: The aim of the study was to evaluate, using microdialysis, the effects of an intraperitoneal (I.P.) administration in rats of three different doses of SON-117 on dopamine and its metabolites, serotonin and its metabolite (5-HIAA), and norepinephrine levels in prefrontal cortex.
# Thirty-two adult male Wistar rats were used for the whole study (4 groups of eight animals planned for the study, Table 1).
# Surgery was performed on rats weighing about 300 g at the beginning of the experiments. Rats were anaesthetized with Ketamine (50 mg/kg) & Xylazine (15 mg/kg) by intramuscular administration. The animals were placed in a stereotaxic apparatus in the flat-skull position at a constant setting of −3.3 mm between ear bars and the incisor bar. The animals were treated with a local anesthesic (xylocaine 1%, Astra Zeneca) and an analgesic (Temgesic, from Schering Plough, 0.05 mg/kg, s.c.). A rostrocaudal midline incision was made with a lancet to expose the dorsal skull surface. The “stereotaxic zero” was defined by the Bregma in accordance with Paxinos and Watson's atlas (1986). A hole was drilled in the skull with a drill and the meninges were pierced with a sterile needle to implant a CMA12 guide cannula which later received the dialysis probe.
# Coordinates used for implanting guide cannula in prefrontal cortex from Bregma were anteroposterior 3.7 mm, mediolateral 0.8 mm, and dorsoventral −2 mm (top of the probe was at −5 mm). The guide cannula was fixed to the skull with two stainless steel screws (1.88 mm outside diameter) anchored. An application of dental cement was added. A plastic collar allowed each animal to be tethered to a Swivel assembly of the CMA 120 awake animal system. Following surgery, rats were kept in individual cages and allowed to recover for a minimum of 3-5 days before the experimentation. The rats were handled and put in plastic bowl for 10 min at least every day to habituate the animals to their new environment for the dialysis. An I.P. administration with saline was also performed every day.
# Dialysis probes (CMA12/3 mm, membrane, 20 kD cut-off, Carnegie Medicine, Stockholm, Sweden), were carefully washed before inserting into the guide cannula. The wash was performed with the artificial cerebrospinal fluid (aCSF) medium (NaCl 147 mM, KCl 2.7 mM, CaCl2 1.2 mM, MgCl2 0.85 mM) at room temperature. The dialysis system was then equilibrated at 20° C. at a perfusion rate of 1 μl/min with a Carnegie pump (CMA100). All catheters (FEP tubing, internal volume of 1.2 μl/10 cm, and tubing adaptors) used for microdialysis were treated in the same conditions.
# The probes duly prepared were inserted into the guide cannula and the CMA120 Swivel assembly secured to the animal using a plastic collar. Flow through the dialysis probe with aCSF was maintained at a rate of 1 μl/min during the whole experimentation. The first four fractions (corresponding to 2 hours) were discarded to avoid the effects of parenchymal disturbance and to ensure that an approximate steady-state level was reached. Fractions were then collected over a period of 8.5 h during which time the animals remained quiet. The dialysates were automatically collected with an autosampler (microfraction collector CMA 140, Carnegie Medicin) and stored at −80° C. until analysis. […] Perfusion was then maintained for 7 hours with aCSF. The dialysates (30 μl) were collected into 300 μl vials, transferred into dry ice and then kept frozen (−80° C.) until analysis. Frozen samples were shipped to a partner for analysis. At the end of the microdialysis study, a PBS with colored ink was perfused through the probe in order to visualize the dialyzed area.
# Catecholamine assay: Concentrations of dopamine, DOPAC, HVA, 5-HIAA, 5-HT, and norepinephrin were determined for each sample by HPLC coupled with electrochemical detection. […]
compound,measurement,setting,value
"Cc1nnc(-c2cc3c(OC[C@@H](O)CN4CCC(c5ccc(Cl)c(Cl)c5)CC4)cccc3o2)o1 [SON-117, (S)-1-(4-(3,4-dichlorophenyl)piperidino)-3-(2-(5-methyl-1,3,4-oxadiazol-2-yl)benzo(b)furan-4-yloxy)-2-propanol hydrochloride]","5-HT (% of respective basal), individual animal",T30-T1 h,69.00 % of respective basal and 117.47 % of respective basal and 153.30 % of respective basal and 119.68 % of respective basal and 228.97 % of respective basal and 127.98 % of respective basal and 113.81 % of respective basal and 57.12 % of respective basal
same,"5-HT (% of respective basal), individual animal",T1 h 30-T2 h,92.30 % of respective basal and 410.73 % of respective basal and 162.34 % of respective basal and 123.16 % of respective basal and 77.29 % of respective basal and 149.14 % of respective basal and 262.61 % of respective basal and 62.56 % of respective basal
same,"5-HT (% of respective basal), individual animal",T1 h-T1 h 30,84.80 % of respective basal and 173.62 % of respective basal and 140.43 % of respective basal and 113.99 % of respective basal and 98.07 % of respective basal and 572.83 % of respective basal and 162.09 % of respective basal and 62.45 % of respective basal
same,"5-HT (% of respective basal), individual animal",T2 h 30-T3 h,51.79 % of respective basal and 182.3 % of respective basal and 109.29 % of respective basal and 102.05 % of respective basal and 101.27 % of respective basal and 528.93 % of respective basal and 86.68 % of respective basal and 564.06 % of respective basal
same,"5-HT (% of respective basal), individual animal",T2 h-T2 h 30,82.11 % of respective basal and 59.17 % of respective basal and 129.41 % of respective basal and 112.33 % of respective basal and 523.12 % of respective basal and 458.59 % of respective basal and 127.80 % of respective basal and 1473.07 % of respective basal
same,"5-HT (% of respective basal), individual animal",T3 h 30-T4 h,74.33 % of respective basal and 66.30 % of respective basal and 153.79 % of respective basal and 155.51 % of respective basal and 132.93 % of respective basal and 131.96 % of respective basal and 93.88 % of respective basal and 405.95 % of respective basal
same,"5-HT (% of respective basal), individual animal",T3 h-T3 h 30,72.21 % of respective basal and 249.58 % of respective basal and 128.14 % of respective basal and 138.05 % of respective basal and 139.82 % of respective basal and 122.70 % of respective basal and 103.66 % of respective basal and 298.06 % of respective basal
same,"5-HT (% of respective basal), individual animal",T4 h 30-T5 h,79.25 % of respective basal and 111.21 % of respective basal and 188.06 % of respective basal and 105.16 % of respective basal and 99.59 % of respective basal and 221.4 % of respective basal and 113.08 % of respective basal and 1455.86 % of respective basal
same,"5-HT (% of respective basal), individual animal",T4 h-T4 h 30,10.23 % of respective basal and 242.01 % of respective basal and 138.36 % of respective basal and 81.92 % of respective basal and 75.44 % of respective basal and 312.84 % of respective basal and 89.43 % of respective basal and 1851.01 % of respective basal
same,"5-HT (% of respective basal), individual animal",T5 h 30-T6 h,18.22 % of respective basal and 541.94 % of respective basal and 112.81 % of respective basal and 91.86 % of respective basal and 67.97 % of respective basal and 390.29 % of respective basal and 95.06 % of respective basal and 682.45 % of respective basal
same,"5-HT (% of respective basal), individual animal",T5 h-T5 h 30,106.82 % of respective basal and 610.15 % of respective basal and 166.13 % of respective basal and 112.99 % of respective basal and 48.55 % of respective basal and 433.73 % of respective basal and 103.27 % of respective basal and 900.33 % of respective basal
same,"5-HT (% of respective basal), individual animal",T6 h 30-T7 h,76.67 % of respective basal and 764.86 % of respective basal and 75.95 % of respective basal and 109.17 % of respective basal
same,"5-HT (% of respective basal), individual animal",T6 h-T6 h 30,98.17 % of respective basal and 780.23 % of respective basal and 117.32 % of respective basal and 105.66 % of respective basal and 44.34 % of respective basal and 387.64 % of respective basal and 93.11 % of respective basal and 410.53 % of respective basal
same,"5-HT release, MEAN",T0-T30 min,119.65 % of respective basal
same,"5-HT release, MEAN",T30-T1 h,111.24 % of respective basal
same,"5-HT release, individual animals",T30-T1 h,160.62 % of respective basal and 82.62 % of respective basal and 90.53 % of respective basal and 121.61 % of respective basal and 144.48 % of respective basal and 187.01 % of respective basal and 55.67 % of respective basal and 47.37 % of respective basal
same,"5-HT release, MEAN",T1 h 30-T2 h,114.14 % of respective basal
same,"5-HT release, individual animals",T1 h 30-T2 h,181.24 % of respective basal and 97.85 % of respective basal and 76.79 % of respective basal and 83.68 % of respective basal and 125.63 % of respective basal and 123.37 % of respective basal and 24.18 % of respective basal and 200.38 % of respective basal
same,"5-HT release, MEAN",T1 h-T1 h 30,144.23 % of respective basal
same,"5-HT release, individual animals",T1 h-T1 h 30,149.89 % of respective basal and 128.02 % of respective basal and 96.66 % of respective basal and 76.75 % of respective basal and 140.12 % of respective basal and 235.56 % of respective basal and 63.72 % of respective basal and 263.12 % of respective basal
same,"5-HT release, MEAN",T2 h 30-T3 h,126.37 % of respective basal
same,"5-HT release, individual animals",T2 h 30-T3 h,96.77 % of respective basal and 104.38 % of respective basal and 101.02 % of respective basal and 167.96 % of respective basal and 125.41 % of respective basal and 206.04 % of respective basal and 42.18 % of respective basal and 167.18 % of respective basal
same,"5-HT release, MEAN",T2 h-T2 h 30,106.16 % of respective basal
same,"5-HT release, individual animals",T2 h-T2 h 30,111.34 % of respective basal and 124.56 % of respective basal and 108.53 % of respective basal and 74.72 % of respective basal and 123.51 % of respective basal and 215.61 % of respective basal and 33.60 % of respective basal and 57.37 % of respective basal
same,"5-HT release, MEAN",T3 h 30-T4 h,133.06 % of respective basal
